Test results taken from article PMC10892288, “Early Stage Preclinical Formulation Strategies to Alter the Pharmacokinetic Profile of Two Small Molecule Therapeutics” (Pharmaceuticals, 2024).
Read-outs that look alike come from different tables or passages of the source.

Experiment: Mouse PK of G7883, PO in MCT vehicle
Format: in vivo, female CD-1 mice
Settings: for AUC(0-t) / Cmax / Tmax / bioavailability / half-life: female; for AUC(0-t): CD-1, mouse, plasma, po, read-out: AUC0 to 8; for Cmax / Tmax / bioavailability / half-life: CD-1, plasma
Experimental: A total of 0.6% w/v Methylcellulose, 0.2% w/v Tween 80 in water (MCT) was prepared by slowly adding Methylcellulose (Methylocel A15 LV; CAS 9004-67-5, Part ID: 64605-500G-F 27.5-31.5% Methoxyl basis, Sigma-Aldrich, St. Louis, MO, USA) in small portions to prevent clumping while stirring into water at 70–80 °C. Once a homogeneous suspension formed, Tween 80 (Polysorbate 80; CAS#9005-65-6 (Polyoxyethylene (20) Sorbitan Monooleate; Tween 80) Part ID: PO138, Spectrum Chemical, New Brunswick, NJ, USA) was added and stirred until fully dissolved. Vehicle was filtered through 0.22 µm PES (Corning REF no. 431098) prior to adding to the compound for dosing. Respective compound was added based on the target concentration to the MCT vehicle and stirred at 35 °C until the power was well-dispersed. Formulations were homogenized through a polytron homogenizer and then sonicated in a water bath sonicator until a homogeneous suspension was achieved.
The pharmacokinetics of G7883 were determined in female CD-1 mice obtained from Charles River Laboratories (Hollister, CA, USA) with a body weight ranging from 20 to 25 g. The pharmacokinetics of G6893 were determined in female C57BL-6 mice (Lingchang/Vital River Laboratory Animal Co., Ltd., Shanghai/Beijing, China) with a body weight ranging from 20 to 35 g. Three mice were given an oral dose of G7883 formulated in 0.6% Methylcellulose, 0.2% Tween80 in water (MCT) at 25 mg/kg and 250 mg/kg with a dosing volume of 10 mL/kg. Food and water were available ad libitum to the animals. Three mice were given an oral dose of G6893 formulated in 0.6% methylcellulose; 0.2% Tween80 in water with pH adjusted to 2.5 at 30 mg/kg and a dose volume of 5 mL/kg. For both compounds, G7883 and G6893, 15 µL of blood was collected serially at 0. 25, 0.5, 1, 2, 4, 6, 8, and 24 h post-dose and diluted in 60 µL of 1.7 mg/mL potassium K2EDTA water. The frozen blood samples were stored at −70 °C or lower until analysis.
All plasma and cell media concentrations of G7883 and G6893 were determined using liquid chromatography–tandem mass spectrometry after protein precipitation with acetonitrile and injection of the supernatant onto the column (Waters ACQUITY UPLC BEH C18 1.7 μm, 2.1 × 50 mm for G7883 and G6893). The aqueous mobile phase was 0.1% formic acid, 2 mM ammonium formate in water/acetonitrile (v:v, 95:5), and the organic mobile phase was 0.1% formic acid, 2 mM ammonium formate in acetonitrile/water (v:v, 95:5). An AB Sciex API 4000 Triple Quad instrument was used for detecting G7883 and G6893 (Figure S2). The electrospray ionization source in both columns was operated in the positive ion and multiple reaction monitoring (MRM) detection modes. The MRM transitions for G7883 and G6893 were m/z 462.2 (Q1) and 253.10 (Q3) and m/z 454.2 (Q1) and 325.9 (Q3), respectively. The dynamic range of both assays was 0.50–50.0 ng/mL, and the total run time was 1.6 min. The lower limit of quantitation of the assay was […], and the dilution quality control concentration was set at 10 ng/mL with acceptance criteria for accuracy and precision of 25%.
All plasma and cell media concentrations of G7883 were determined using liquid chromatography–tandem mass spectrometry after protein precipitation with acetonitrile and injection of the supernatant onto the column (Phenomenex Kinetex XB-C18, 30 × 2.1 mm, 2.6 µm). The aqueous mobile phase was 10 mM of ammonium formate in water, and the organic mobile phase was 0.1% formic acid in acetonitrile. An AB Sciex API 5500 Triple Quad instrument was used for detecting G7883. The electrospray ionization source in both columns was operated in the positive ion and MRM detection modes. The MRM transitions for G7883 were m/z 462.2 (Q1) and 253.10 (Q3), respectively. The dynamic range of the assay was 0.50–50.0 ng/mL, and the total run time was 2 min. […]

[1] = 250 mg/kg, PO 250 mpk, mean ± SD

AUC0 to 8 (PO 250 mpk, mean ± SD, 250 mg/kg): 25.1 ± 5.43 µM·h
AUC(0-t) (25 mg/kg, PO 25 mpk, mean ± SD): 1.99 ± 0.4 µM·h
AUC(0-t) [1]: 25 µM·h
Cmax (25 mg/kg, PO 25 mpk, mean ± SD): 1.25 ± 0.82 µM
Tmax (25 mg/kg, PO 25 mpk, mean ± SD): 0.5 h
bioavailability (25 mg/kg, PO 25 mpk, mean ± SD, read-out: F): 6.18 ± 1.24%
half-life (25 mg/kg, PO 25 mpk, mean ± SD, read-out: t1/2 (converted)): 2.17 ± 0.73 h
Cmax [1]: 6.85 ± 2.24 µM
Tmax [1]: 0.583 ± 0.382 h
bioavailability (250 mg/kg, PO 250 mpk, mean ± SD, read-out: F): 7.8 ± 1.69%
half-life (250 mg/kg, PO 250 mpk, mean ± SD, read-out: t1/2 (converted)): 2.74 ± 0.201 h
bioavailability (PO, 25 to 250 mpk, read-out: bioavailability): ~7%
half-life (PO, 25 to 250 mpk, read-out: plasma half-life (converted)): 2 h
Structure (SMILES): Cc1nccnc1-c1nn2c(=O)cc(-c3ccc(C4CCCCC4)cc3)[nH]c2c1C(=O)N1CC(CF)C1 [G7883, 5-(4-cyclohexylphenyl)-3-[3-(fluoromethyl)azetidine-1-carbonyl]-2-(3-methylpyrazin-2-yl)-4H-pyrazolo[1,5-a]pyrimidin-7-one]
